Results reported in patent US5010084A, “Imidazoquinolone derivatives” (Kyowa Hakko Kogyo Co., Ltd., priority 1989, dated 1991).
Where a name gives a salt, the structure may show the parent alone.

What was measured:
[1] = test system: zig-zag strips of the tracheae (passively sensitized guinea pigs); assay: Effects on passive Schultz-Dale reaction (broncho-dilatory effects); type: cell-based, guinea pig (male Hartley); details: Cavia porcellus; guinea pig trachea contracted with antigen EWA 1 μg/ml, 37° C., cumulative concentration-relaxation curves; read-out: Passive Schultz-Dale reaction (IC50), concentration of 50% relaxation rate
Experimental: Male Hartley guinea pigs weighing 350 to 500 g were passively sensitized by intraperitoneal injection of rabbit anti-egg white albumin (EWA) serum prepared by the method of Eda et al. [Folia pharmacol., Japon 66, 237, (1970)]. After 24 hours, the guinea pigs were stunned and exsanguinated, and then tracheae were removed. The zig-zag strips of the tracheae were prepared by the method of Emmerson and Mackay [J. Pharm. Pharmacol., 31, 798, (1979)]. The strips were suspended in Krebs-Henseleit solution at 37° C. under aeration of a mixed gas of 95% oxygen and 5% carbon dioxide, and equilibrated for one hour. Antigen (EWA) was then introduced in the solution (final concentration; 1 μg/ml), and the contraction was measured by […] (TD-112s, made by Nihon Kohden K.K., Japan) and recorded on a recorder (Type 3066, made by Yokogawa-Hokushin Denki, K.K. Japan). After the contraction curves reached plateau, the compounds were successively added in order to get cumulative concentration-relaxation curves.

[2] = Acute toxicity; details: mouse, in vivo; male dd-mice, po, mortality for seven days
Experimental: The compounds were orally administrated (po: 300 mg/kg) to male dd-mice weighing 20 to 25 g. LD50 was determined by observing the mortality for seven days after the administration.

[3] = test system: passively sensitized guinea pigs, experimental asthma; assay: Effects on experimental asthma; type: in vivo, guinea pig (male Hartley); details: guinea pig, 50 mg/kg orally, 1 hour before aerosol of 1.5% EWA; diphenhydramine and propranolol pretreated; control 254
Experimental: Guinea pigs were passively sensitized as follows. Male Hartley guinea pigs weighing 350 to 500g were intraperitoneally injected with 1 ml of rabbit EWA serum prepared by the method of Eda et al. [Folia pharmacol., Japon, 66, 237 (1970)]. The animals were treated with intraperitoneal injection of diphenhydramine (20 mg/kg) and propranolol (5 mg/kg), 30 minutes before administration of test compounds. 17 hours after the sensitization, the test compounds (50 mg/kg) were orally administrated to sensitized animals. After one hour from the administration of the test compounds, the guinea pigs were placed in plastic observation box and were exposed to an aerosal antigen of 1.5% EWA. The time until the onset of respiratory […] symptom [collapse time (second)] was measured as a result of experimental asthma.

SMILES | IC50 [1] | LD50 at 168 h [2] | Experimental asthma, collapse time (time until the onset of respiratory distresslike symptom) [3]
Cn1c(=O)c2[nH]cnc2n(C)c1=O [Aminophylline, reference compound] | 23 µM | – | –
CCCCn1c(=O)c2c(ncn2C)c2ccccc21 [Compound 1, 5-n-Butyl-3-methyl-3H,5H-imidazo[4,5,-c]quinolin-4-one] | 6.7 µM | > 200 mg/kg | 429 s
CCCCn1c(=O)c2c(ncn2CC)c2ccccc21.Cl [Compound 2, 5-n-Butyl-3-ethyl-3H,5H-imidazo[4,5-c]quinolin-4-one hydrochloride] | 2 µM | > 300 mg/kg | –
CCCCn1c(=O)c2c(ncn2CCC)c2ccccc21.Cl [Compound 3, 5-n-Butyl-3-n-propyl-3H,5H-imidazo[4,5-c]quinolin-4-one hydrochloride] | 6.8 µM | > 300 mg/kg | 348 s
CCCCn1c(=O)c2c(ncn2C(C)C)c2ccccc21 [Compound 4, 5-n-Butyl-3-isopropyl-3H,5H-imidazo[4,5,-c]quinolin-4-one hydrochloride] | 3.7 µM | > 300 mg/kg | –
CCCCn1cnc2c3ccccc3n(CCCC)c(=O)c21 [Compound 5, 3,5-Di-n-Butyl-3H,5H-imidazo [4,5,-c] quinolin-4-one hydrochloride] | – | > 300 mg/kg | –
CCCCn1c(=O)c2c(ncn2CC(C)=O)c2ccccc21 [Compound 6, 3-Acetonyl-5-n-butyl-3H,5H-imidazo[4,5,-c]quinolin-4-one] | 7.9 µM | > 300 mg/kg | 530 s
CCCCn1c(=O)c2c(ncn2CC(=O)OC(C)(C)C)c2ccccc21 [Compound 7, 3-tert-Butoxycarbonylmethyl-5-n-butyl-3H,5H-imidazo[4,5-c]quinolin-4-one] | 0.47 µM | – | –
CCCCn1c(=O)c2c(ncn2CC(=O)O)c2ccccc21 [Compound 8, 5-n-Butyl-3-carboxymethyl-3H,5H-imidazo[4,5,-c]quinolin-4-one] | 6.7 µM | – | –
CCn1c(=O)c2c(ncn2C)c2ccccc21 [Compound 9, 5-Ethyl-3-methyl-3H,5H-imidazo[4,5,-c]quinolin-4-one] | 1.3 µM | – | –
Cn1c(=O)c2[nH]cnc2n(C)c1=O [Theophylline, reference compound] | – | – | 414 s
